Results from patent US8501908B2, “Immunogenic peptides” (priority 2008, dated 2013).

Key:
Assay type in all cases: cell-based, human
[1] = test system: PBMCs from DLBCL patients; experiment: γ-IFN release ELISPOT, PBMCs of DLBCL patients after short-term culture with peptides; design: γ-IFN response to peptides: unit not given here; conditions: for γ-IFN response to peptides: triplicate ELISPOT; for order of immunogenicity for eliciting CTLs: order PASD1(1), PASD1(2), PASD1(5), PASD1(3), PASD1(4)
[2] = test system: Thiel (myeloma) cell line; experiment: 51Cr release cytolytic assay of peptide-specific CTL/TH cell lines; conditions: for lysis by CTL lines raised against the peptide: HLA-A*0201-positive PASD1-positive Thiel, 4 h 51Cr release, four patients
Procedure: (§1) A conventional ^51Cr-labelling release assay was used to investigate the ability of CTL and TH cell lines generated from DLBCL patients to lyse PASD1-positive tumour target cells. The target cell lines, consisting of the OCI-Ly3, SUDHL-6, KM-H2 and Thiel, were radiolabelled with 100 μCi ^51Cr for 90 minutes. […] The incubation period of the TH with the target cells was increased to 18 hours. Maximum ^51Cr release was determined following the addition of 10% Triton-X to the radiolabelled target cells and spontaneous release was assessed by adding RPMI1640/FCS to the target cells. The supernatant was harvested and counted in a gamma-counter (Beckmann, Heidelberg, Germany).

[3] = test system: OCI-Ly3 (DLBCL) cell line; experiment: as above; conditions: for lysis by CTL lines raised against the peptide: PASD1-positive HLA-A*0201-negative OCI-Ly3, 4 h 51Cr release
Procedure: as §1

[4] = test system: SUDHL-6 (DLBCL) cell line; experiment: as above; conditions: PASD1-negative SUDHL-6; for lysis by CTL lines raised against the peptide: 4 h 51Cr release
Procedure: as §1

[5] = test system: PBMCs from healthy donors; experiment: γ-IFN release ELISPOT, PBMCs of healthy donors after short-term culture with peptides; conditions: triplicate ELISPOT, ± SD
[6] = test system: KM-H2 (HL) cell line; experiment: 51Cr release cytolytic assay of peptide-specific CTL cell lines; conditions: HLA-A*0201-negative PASD1-positive KM-H2; 4 h 51Cr release
Procedure: as §1

[7] = PBMCs from a DLBCL patient stimulated in culture with PASD1(6) or PASD1(7) peptides, +/− SD

## DYFNQVTLQLLDGFMITLST (listed as Homo sapiens) [PASD1(6)]
[1]; DLBCL patients (FIG. 5), short term culture, p<0.05
  TH γ-IFN response to peptides at time of diagnosis and after one year: significant
[1]; [7]
  γ-IFN response to peptides: 32 +/− 2
[1]; Patient 1, De novo DLBCL, DRB1-0102, group Significant response, ± SD
  γ-IFN response to peptides: 52 ± 6
[1]; Patient 2, De novo DLBCL, DRB1-0101, group Significant response, ± SD
  γ-IFN response to peptides: 32 ± 4
[1]; Patient 3, De novo DLBCL, DRB1-0301, group Significant response, ± SD
  γ-IFN response to peptides: 34 ± 4
[1]; Patient 4, De novo DLBCL, DRB1-0102, group Significant response, ± SD
  γ-IFN response to peptides: 58 ± 8
[1]; Patient 8, De novo DLBCL, DRB1-1501, group Significant response, ± SD
  γ-IFN response to peptides: 36 ± 6
[1]; Patient 9, De novo DLBCL, DRB1-0301, group Significant response, ± SD
  γ-IFN response to peptides: 22 ± 6
[1]; Patient 10, De novo DLBCL, DRB1-0101, group No significant response, ± SD
  γ-IFN response to peptides: 30 ± 8
[1]; Patient 12, De novo DLBCL, DRB1-0401, group Significant response, ± SD
  γ-IFN response to peptides: 44 ± 6
[1]; Patient 15, De novo DLBCL, DRB1-1301, group No significant response, ± SD
  γ-IFN response to peptides: 28 ± 4
[1]; Patient 17, De novo DLBCL, DRB1-0301, group No significant response, ± SD
  γ-IFN response to peptides: 20 ± 2
[1]; Patient 18, De novo DLBCL, DRB1-0401, group No significant response, ± SD
  γ-IFN response to peptides: 14 ± 2
[1]; Patient 19, De novo DLBCL, DRB1-1104, group No significant response, ± SD
  γ-IFN response to peptides: 22 ± 2
[1]; Patient 20, De novo DLBCL, DRB1-1303, group No significant response, ± SD
  γ-IFN response to peptides: 10 ± 2
[1]; Patient 21, De novo DLBCL, DRB1-0301, group No significant response, ± SD
  γ-IFN response to peptides: 18 ± 2
[1]; Patient 24, De novo DLBCL, DRB1-1301, group Significant response, ± SD
  γ-IFN response to peptides: 22 ± 4
[1]; Patient 28, Trans DLBCL, DRB1-0701, group No significant response, ± SD
  γ-IFN response to peptides: 28 ± 4
[1]; Patient 37, Trans DLBCL, DRB1-0103, group Significant response, ± SD
  γ-IFN response to peptides: 38 ± 4
[1]; Patient 48, T-cell rich DLBCL, DRB1-0301, group Significant response, ± SD
  γ-IFN response to peptides: 48 ± 4
[1]; Patient 61, De novo DLBCL, DRB1-0401, group No significant response, ± SD
  γ-IFN response to peptides: 22 ± 2
[1]; TH γ-IFN response, DLBCL patients
  immunogenicity among patients studied: immunogenic in the majority of patients
[1]; cells cultured 8-10 days with PASD1(6) or PASD1(7), Table 4
  γ-IFN response to the PASD1(1) CTL peptide elicited by culture with the peptide: comparable
[1]; from γ-IFN release assay, order PASD1(6), PASD1(7), PASD1(10), PASD1(9), PASD1(8)
  order of immunogenicity for eliciting TH cell responses: most immunogenic
[2]; PASD1-positive Thiel, 18 h 51Cr release
  lysis by TH cell lines specific for the peptide: Significant dose dependent lysis
[3]; PASD1-positive OCI-Ly3, 18 h 51Cr release
  lysis by TH cell lines specific for the peptide: Significant dose dependent lysis
[4]; 18 h 51Cr release
  lysis by TH cell lines specific for the peptide: no significant lysis
[5]; Healthy donor HD 1, DRB1-0102
  γ-IFN response to peptides: 14 ± 2
[5]; Healthy donor HD 2, DRB1-0401
  γ-IFN response to peptides: 10 ± 2
[5]; Healthy donor HD 3, DRB1-0401
  γ-IFN response to peptides: 5 ± 2
[5]; Healthy donor HD 4, DRB1-0301
  γ-IFN response to peptides: 14 ± 2
[5]; Healthy donor HD 5, DRB1-0301
  γ-IFN response to peptides: 24 ± 2

## ELSDSLGPV (listed as Homo sapiens) [PASD1(5)]
[6]
  lysis by CTL lines raised against the peptide: not
[1]; from γ-IFN release assay
  order of immunogenicity for eliciting CTLs: more immunogenic
[2]
  lysis by CTL lines raised against the peptide: dose dependent lysis
[3]
  lysis by CTL lines raised against the peptide: not
[4]
  lysis by CTL lines raised against the peptide: not

## QLLDGFMITL (listed as Homo sapiens) [PASD1(1)]
[6]
  lysis by CTL lines raised against the peptide: not
[1]; [7]
  γ-IFN response to peptides: 30 +/− 4
[1]; from γ-IFN release assay
  order of immunogenicity for eliciting CTLs: most immunogenic
[2]
  lysis by CTL lines raised against the peptide: dose dependent lysis
[2]; effector:target ratio of 5:1, all four patients
  cytolytic effect of peptide-stimulated cells: significant
[3]
  lysis by CTL lines raised against the peptide: not
[4]
  lysis by CTL lines raised against the peptide: not

## YLVGNVCIL (listed as Homo sapiens) [PASD1(2)]
[6]
  lysis by CTL lines raised against the peptide: not
[1]; from γ-IFN release assay
  order of immunogenicity for eliciting CTLs: more immunogenic
[2]
  lysis by CTL lines raised against the peptide: dose dependent lysis
[3]
  lysis by CTL lines raised against the peptide: not
[4]
  lysis by CTL lines raised against the peptide: not
